Measurements from the NIST ThermoML archive (doi:10.1016/j.jct.2017.06.001).
Numbers after ± are expanded uncertainties.

Assay: xn = mol fraction of the nth substance listed
Conditions: 100 kPa, Liquid; for speed of sound: Frequency=5 MHz, Pulse-echo method; for mass density: Vibrating tube method

OCCCCCO [1,5-pentanediol] + O
Conditions	mass density [kg/m3]	speed of sound [m/s]
293.15 K, x1 = 0.005	997.92 ± 0.53	–
293.15 K, x1 = 0.0101	997.99 ± 1	–
293.15 K, x1 = 0.0196	998.58 ± 1	–
293.15 K, x1 = 0.0251	999.15 ± 1	–
293.15 K, x1 = 0.0304	999.8 ± 1	–
293.15 K, x1 = 0.05	1001.74 ± 1	–
293.15 K, x1 = 0.0769	1003.5 ± 1.1	–
293.15 K, x1 = 0.1002	1004.72 ± 1.1	–
293.15 K, x1 = 0.1438	1005.61 ± 1.1	–
293.15 K, x1 = 0.1548	–	1691.8 ± 1.3
293.15 K, x1 = 0.1602	–	1692.6 ± 1.3
293.15 K, x1 = 0.1649	–	1693.2 ± 1.3
293.15 K, x1 = 0.1671	–	1693.5 ± 1.3
293.15 K, x1 = 0.1718	–	1694 ± 1.3
293.15 K, x1 = 0.1738	–	1694.1 ± 1.3
293.15 K, x1 = 0.1776	–	1694.5 ± 1.3
293.15 K, x1 = 0.1807	–	1694.7 ± 1.3
293.15 K, x1 = 0.1845	1005.62 ± 1.1	–
293.15 K, x1 = 0.1846	–	1694.9 ± 1.3
293.15 K, x1 = 0.1875	–	1695.1 ± 1.3
293.15 K, x1 = 0.19	–	1695.2 ± 1.3
293.15 K, x1 = 0.1941	–	1695.4 ± 1.3
293.15 K, x1 = 0.1964	–	1695.5 ± 1.3
293.15 K, x1 = 0.2006	–	1695.5 ± 1.3
293.15 K, x1 = 0.2029	–	1695.6 ± 1.3
293.15 K, x1 = 0.2051	–	1695.6 ± 1.3
293.15 K, x1 = 0.2087	–	1695.7 ± 1.3
293.15 K, x1 = 0.2114	–	1695.7 ± 1.3
293.15 K, x1 = 0.2217	–	1695.6 ± 1.3
293.15 K, x1 = 0.2315	–	1695.4 ± 1.3
293.15 K, x1 = 0.2384	–	1695.2 ± 1.3
293.15 K, x1 = 0.246	–	1695 ± 1.3
293.15 K, x1 = 0.2503	1004.77 ± 1.2	–
293.15 K, x1 = 0.2552	–	1694.6 ± 1.4
293.15 K, x1 = 0.2648	–	1694.1 ± 1.4
293.15 K, x1 = 0.2739	–	1693.7 ± 1.4
293.15 K, x1 = 0.2857	–	1693 ± 1.4
293.15 K, x1 = 0.2983	–	1692.1 ± 1.4
293.15 K, x1 = 0.3	1003.78 ± 1.2	–
293.15 K, x1 = 0.3133	–	1691.1 ± 1.4
293.15 K, x1 = 0.3287	–	1689.9 ± 1.4
293.15 K, x1 = 0.3343	1003.14 ± 1.3	–
293.15 K, x1 = 0.3552	–	1687.7 ± 1.4
293.15 K, x1 = 0.3729	–	1686.1 ± 1.5
293.15 K, x1 = 0.4002	–	1683.5 ± 1.5
293.15 K, x1 = 0.4171	1001.32 ± 1.4	–
293.15 K, x1 = 0.4241	–	1681 ± 1.5
293.15 K, x1 = 0.4527	–	1677.7 ± 1.6
293.15 K, x1 = 0.454	1000.44 ± 1.4	–
293.15 K, x1 = 0.478	–	1674.7 ± 1.6
293.15 K, x1 = 0.5003	999.3 ± 1.5	–
293.15 K, x1 = 0.5024	–	1671.6 ± 1.6
293.15 K, x1 = 0.5266	–	1668.4 ± 1.6
293.15 K, x1 = 0.5362	998.5 ± 1.5	–
293.15 K, x1 = 0.5491	–	1665.3 ± 1.7
293.15 K, x1 = 0.5701	–	1662.4 ± 1.7
293.15 K, x1 = 0.5912	–	1659.4 ± 1.7
293.15 K, x1 = 0.6123	–	1656.4 ± 1.8
293.15 K, x1 = 0.6177	996.9 ± 1.7	–
293.15 K, x1 = 0.631	–	1653.7 ± 1.8
293.15 K, x1 = 0.6478	996.3 ± 1.7	–
293.15 K, x1 = 0.656	–	1650.2 ± 1.8
293.15 K, x1 = 0.6746	–	1647.5 ± 1.8
293.15 K, x1 = 0.6953	–	1644.6 ± 1.9
293.15 K, x1 = 0.7025	995.2 ± 1.8	–
293.15 K, x1 = 0.7147	–	1641.9 ± 1.9
293.15 K, x1 = 0.7344	–	1639.1 ± 1.9
293.15 K, x1 = 0.7504	994.4 ± 1.9	–
293.15 K, x1 = 0.7546	–	1636.4 ± 1.9
293.15 K, x1 = 0.7797	–	1633 ± 2
293.15 K, x1 = 0.7927	993.6 ± 2	–
293.15 K, x1 = 0.8014	–	1630.2 ± 2
293.15 K, x1 = 0.8265	–	1627 ± 2
293.15 K, x1 = 0.8497	–	1624.1 ± 2.1
293.15 K, x1 = 0.8605	992.3 ± 2.1	–
293.15 K, x1 = 0.8696	–	1621.6 ± 2.1
293.15 K, x1 = 0.9004	991.5 ± 2.2	–
293.15 K, x1 = 0.9029	–	1617.5 ± 2.2
293.15 K, x1 = 0.9198	–	1615.4 ± 2.2
293.15 K, x1 = 0.9259	–	1614.7 ± 2.2
293.15 K, x1 = 0.9367	–	1613.3 ± 2.2
293.15 K, x1 = 0.9484	–	1611.8 ± 2.2
293.15 K, x1 = 0.9496	990.4 ± 2.3	–
293.15 K, x1 = 0.9601	–	1610.3 ± 2.2
293.15 K, x1 = 0.97	–	1609.1 ± 2.3
293.15 K, x1 = 0.9804	–	1607.7 ± 2.3
293.15 K, x1 = 0.9884	–	1606.6 ± 2.3
293.15 K, x1 = 0.9943	–	1605.8 ± 2.3
293.15 K, x1 = 1	989.3 ± 2.1	1605 ± 2.3
298.15 K, x1 = 0.0002	–	1497.3 ± 1.1
298.15 K, x1 = 0.0006	–	1498.9 ± 1.1
298.15 K, x1 = 0.0012	–	1501.2 ± 1.1
298.15 K, x1 = 0.0018	–	1503.4 ± 1.1
298.15 K, x1 = 0.0026	–	1506.3 ± 1.1
298.15 K, x1 = 0.004	–	1511.1 ± 1.1
298.15 K, x1 = 0.0054	–	1515.9 ± 1.1
298.15 K, x1 = 0.0067	–	1520.1 ± 1.2
298.15 K, x1 = 0.0083	–	1525.4 ± 1.2
298.15 K, x1 = 0.0097	–	1529.9 ± 1.2
298.15 K, x1 = 0.0113	–	1534.7 ± 1.2
298.15 K, x1 = 0.0123	–	1537.8 ± 1.2
298.15 K, x1 = 0.0138	–	1542.2 ± 1.2
298.15 K, x1 = 0.0153	–	1546.5 ± 1.2
298.15 K, x1 = 0.0168	–	1550.8 ± 1.2
298.15 K, x1 = 0.0184	–	1555.2 ± 1.2
298.15 K, x1 = 0.0195	–	1558 ± 1.2
298.15 K, x1 = 0.0205	–	1560.8 ± 1.2
298.15 K, x1 = 0.0221	–	1564.7 ± 1.2
298.15 K, x1 = 0.0243	–	1570.1 ± 1.2
298.15 K, x1 = 0.0264	–	1575.3 ± 1.2
298.15 K, x1 = 0.0287	–	1580.3 ± 1.2
298.15 K, x1 = 0.0308	–	1584.9 ± 1.2
298.15 K, x1 = 0.0326	–	1588.7 ± 1.2
298.15 K, x1 = 0.0347	–	1593 ± 1.2
298.15 K, x1 = 0.0362	–	1596.1 ± 1.2
298.15 K, x1 = 0.0378	–	1599.1 ± 1.2
298.15 K, x1 = 0.0396	–	1602.6 ± 1.2
298.15 K, x1 = 0.0414	–	1605.7 ± 1.2
298.15 K, x1 = 0.0432	–	1608.9 ± 1.2
298.15 K, x1 = 0.045	–	1612 ± 1.2
298.15 K, x1 = 0.0465	–	1614.4 ± 1.2
298.15 K, x1 = 0.0484	–	1617.3 ± 1.2
298.15 K, x1 = 0.0503	–	1620.2 ± 1.2
298.15 K, x1 = 0.0523	–	1623.2 ± 1.2
298.15 K, x1 = 0.0539	–	1625.4 ± 1.2
298.15 K, x1 = 0.0554	–	1627.5 ± 1.2
298.15 K, x1 = 0.057	–	1629.7 ± 1.2
298.15 K, x1 = 0.0588	–	1631.9 ± 1.2
298.15 K, x1 = 0.0607	–	1634.3 ± 1.2
298.15 K, x1 = 0.0624	–	1636.4 ± 1.2
298.15 K, x1 = 0.0647	–	1639 ± 1.2
298.15 K, x1 = 0.0672	–	1641.8 ± 1.2
298.15 K, x1 = 0.0698	–	1644.5 ± 1.2
298.15 K, x1 = 0.0724	–	1647.1 ± 1.2
298.15 K, x1 = 0.0743	–	1648.9 ± 1.2
298.15 K, x1 = 0.0774	–	1651.7 ± 1.2
298.15 K, x1 = 0.0814	–	1655.1 ± 1.2
298.15 K, x1 = 0.0847	–	1657.7 ± 1.2
298.15 K, x1 = 0.0877	–	1659.9 ± 1.2
298.15 K, x1 = 0.0907	–	1661.9 ± 1.2
298.15 K, x1 = 0.0941	–	1664.1 ± 1.2
298.15 K, x1 = 0.0968	–	1665.7 ± 1.2
298.15 K, x1 = 0.0975	–	1666.1 ± 1.2
298.15 K, x1 = 0.1007	–	1667.9 ± 1.2
298.15 K, x1 = 0.1013	–	1668.2 ± 1.2
298.15 K, x1 = 0.1045	–	1669.8 ± 1.2
298.15 K, x1 = 0.1057	–	1670.4 ± 1.2
298.15 K, x1 = 0.108	–	1671.4 ± 1.2
298.15 K, x1 = 0.1105	–	1672.6 ± 1.2
298.15 K, x1 = 0.1112	–	1672.8 ± 1.2
298.15 K, x1 = 0.1142	–	1674 ± 1.2
298.15 K, x1 = 0.1158	–	1674.7 ± 1.2
298.15 K, x1 = 0.1173	–	1675.2 ± 1.2
298.15 K, x1 = 0.1201	–	1676.2 ± 1.2
298.15 K, x1 = 0.1217	–	1676.7 ± 1.2
298.15 K, x1 = 0.1233	–	1677.2 ± 1.2
298.15 K, x1 = 0.1262	–	1678.1 ± 1.2
